From patent publication US20120076776A1, “METHOD FOR TREATING INFLAMATION BY LYMPHOCYTE DEPLETION OR SEQUESTERING” (priority 2010, published 2012)

Tests used:
[1] = system: central lymphocytes (CD3+); test: CD3 immunohistochemistry of mesenteric lymph node and spleen at necropsy (ACIS); format: in vivo, Yorkshire (Sus scrofa domestica) swine; conditions: FTY720 0.3 mg/kg; both mesenteric lymph node and spleen at necropsy
Experimental: Immunohistochemical detection of CD3 was performed on sections of formalin fixed, paraffin embedded blocks of swine lymph node and spleen. Antigen retrieval was performed using Trilogy (Cell Marque, Rocklin, Calif.) for 30 minutes. Rat, anti-human CD3, monoclonal antibody (AbD Serotec, Raleigh, N.C.) was used at a dilution of 1:50 and incubated overnight at 4 C. Biotinylated goat anti-rat IgG specific polyclonal antibody (BD Biosciences, San Jose, Calif.) was applied as a secondary antibody at a 1:100 dilution for 30 minutes at room temperature. The chromogen applied was 3, 3′ Diaminobenzidine (DAKO, Carpenteria, Calif.) for 10 minutes. The sections were counterstained with Hematoxylin (DAKO, Carpenteria, Calif.). External negative controls were processed identically as CD3 but the primary antibody was substituted with normal rat serum. […] An Automated Cellular Imaging System (ACIS) was used to quantify the CD3 immunohistochemistry staining. By using the ACIS system, CD3 immunohistochemical staining could be specifically quantitated by determining how much brown (positive CD3 immunohistochemical reaction) was in the image compared to the amount of blue (hematoxylin nuclear counterstain).
Tissue slides were deparaffinized using xylene followed by graded baths of ethanol. […] An Automated Cellular Imaging System (ACIS) was used to quantify the CD3 immunohistochemistry staining. […]

renal transplant IRI = conditions: rat, in vivo; cited from earlier work
IRI = conditions: various animal models; cited from earlier work
peripheral neutrophils = test: Peripheral neutrophil counts during hemorrhage and reperfusion; format: in vivo, Yorkshire (Sus scrofa domestica) swine; conditions: FTY720 0.3 mg/kg; reperfusion period
Experimental: All functional laboratory assays were performed at 37° C., consistent with recorded normothermic animal temperatures (37.5±0.9° C.). Blood samples were collected at 0, 15, 30, 60, 90, and 120 minutes during the hemorrhage period and at 18, 24, 36, 48, and 72 hours during the survival period. Complete blood count with differentiation was performed with a cell counter (NDvia120 Hematology System, Siemens, Deerfield, Ill.).
Blood samples were collected at 0, 15, 30, 60, 90, and 120 minutes during the hemorrhage period and at 18, 24, 36, 48, and 72 hours during the survival period. Complete blood counts with differentiation were obtained using a cell counter (NDvia120 Hematology System, Siemens, Deerfield, Ill.).

[2] = system: lung tissue neutrophils (MPO+); test: MPO immunohistochemistry of lung tissue at necropsy; format: in vivo, Yorkshire (Sus scrofa domestica) swine; conditions: FTY720 0.3 mg/kg
Experimental: Immunohistochemical detection of MPO was performed on sections of formalin fixed, paraffin embedded blocks of swine lung. Antigen retrieval was performed using Proteinase K (DAKO, Carpenteria Calif.) for 30 minutes. Polyclonal rabbit, anti-human MPO (DAKO, Carpenteria Calif.) was used at a ready to use dilution and incubated at room temperature for 30 minutes. Envision, anti-rabbit (DAKO, Carpenteria Calif.) was applied as a secondary antibody for 30 minutes at room temperature. The chromogen applied was 3,3′ Diaminobenzidine (DAKO, Carpenteria, Calif.) for 10 minutes. The sections were counterstained with Hematoxylin (DAKO, Carpenteria, Calif.). External negative control was processed identically as with MPO but the primary antibody was substituted with normal rabbit serum. […] Cells with appropriate nuclear morphology and the presence of light to intensely reactive granules were counted; 5 random 40× fields were assessed.
Immunohistochemical detection of MPO was performed on sections of formalin fixed, paraffin embedded blocks of lung tissue. […] Polyclonal rabbit, anti-human MPO (DAKO, Carpenteria Calif.) was used at a ready to use dilution and incubated at room temperature for 30 minutes. […] Cells with appropriate nuclear morphology and the presence of light to intensely reactive granules were counted; 5 random 40× fields were assessed.

[3] = system: experimental hemorrhagic shock induced by porcine liver injury; test: Liver injury hemorrhagic shock model: survival, blood loss, hemodynamics; format: in vivo, Yorkshire (Sus scrofa domestica) swine; conditions: FTY720 0.3 mg/kg 15 min after liver injury
Experimental: Male and female 3-12 month Yorkshire (Sus scrofa domestica) swine weighing 25-35 kg were acquired from ABI farms (Donsboro, Pa.). Feed was withheld 12 hours before surgery. Prior to surgery, animals were sedated and anesthesia induced with intramuscular ketamine hydrochloride (12-20 mg/kg of weight) and xylazine (2.2 mg/kg of weight) as well as atropine sulfate (0.05 mg/kg of weight) to decrease tracheal secretions. Mask ventilation with Isoflurane (5.0%) was used to facilitate endotracheal intubation. Pigs were ventilated (Ohmeda 7800 series ventilator, Datex, Madison, Wis.) at 12-15 breaths/min and tidal volume 10 mL/kg. Anesthesia was maintained with Isoflurane (1.5-2.5%) in 21-25% O2.
Following adequate anesthesia the right external and internal jugular veins and carotid artery were isolated. A 9Fr dual-lumen, tunneled Hickman catheter was placed in the external jugular vein for drug infusion and blood collection during the survival period. […] Rectal temperature was monitored continuously. […]
All animal groups underwent a standardized liver injury and resuscitation protocol. […] Bleeding was spontaneous and removed continually via suction and quantified by weight. […]
After a total of 2 hours, the pre-hospital phase was completed and hospital arrival was simulated. […] The abdomen was reopened, residual blood suctioned, sponges collected, and blood loss quantified by weight. […]

[4] = system: immune-related genes in liver tissue; test: QRT-PCR gene transcript expression in liver tissue at necropsy; conditions: FTY720 n=7 vs control n=5

CCCCCCCCc1ccc(CCC(N)(CO)CO)cc1 [FTY720]
central lymphocyte sequestration (CD3 staining) vs control [1]: significant central lymphocyte sequestration | adhesion molecules expression (renal transplant IRI): no change | intragraft neutrophil infiltration (renal transplant IRI): reduced | renal function (renal transplant IRI): improved renal function | effect on IRI (IRI): ameliorate IRI | peripheral neutrophil response vs control (peripheral neutrophils): attenuated | lung tissue neutrophils vs control [2]: significantly decreased | reperfusion period survival vs control [3]: statistically improved | overall survival vs control ([3]; 72 hours): improved compared to control although not statistically significant | BCL-2 transcript expression in liver vs control [4]: up-regulated | FAS transcript expression in liver vs control [4]: down regulated | HSP70 transcript expression in liver vs control [4]: down-regulated | INOS transcript expression in liver vs control [4]: down-regulated | NFκB transcript expression in liver vs control [4]: down-regulated | VCAM transcript expression in liver vs control [4]: down-regulated
